The values that follow are results of earlier work, collected in PMC11187573, “Identification of SARS-CoV-2 Mpro inhibitors through deep reinforcement learning for de novo drug design and computational chemistry approaches” (RSC Medicinal Chemistry, 2024).

This data set deals with Mpro. The settings on record: ML dataset, cited from earlier work.
The mark [1] stands for this setting: Origin COVID_Moonshot, ref COVID Moonshot.

SMILES strings stand for the structures. Read-outs that look alike come from different tables or passages of the source.

In the case of `Cc1ccc(-n2sc(=O)n(Cc3ccc(F)cc3)c2=O)cc1` [CHEMBL1917204, Cc(cc1)ccc1N(C(N1Cc(cc2)ccc2F)=O)SC1=O, reference compound], the IC50 (usually the concentration that gives 50% inhibition) (Origin ChEMBL, ref ChEMBL) is 0.19 µM. `COc1ccc(N(Cc2cccc(Cl)c2)C(=O)Cn2nnc3ccccc32)cc1` [CHO-MSK-00c5269a-2]: the IC50 under setting [1] was 3.4 µM. For the compound `O=C(Cn1nnc2ccccc21)N(Cc1cccc(Cl)c1)c1ccc(N2CCCCC2)cc1` [CHO-MSK-00c5269a-5], under setting [1], the IC50 is 4.83 µM. Consider `Cc1ccncc1NC(=O)Cc1cc(Cl)cc(OCc2nnc(C3CCCCC3)o2)c1` [CHO-MSK-6e55470f-7], for which the IC50 under setting [1] was 17 µM. On to `O=C(Nc1cnccc1Cl)c1cc(Cl)ccc1O` [CHR-SOS-7098f804-10], for which, under setting [1], the IC50 is 24.2 µM. For `O=C(Nc1cccnc1)c1cc(Cl)ccc1-c1ccccc1` [CHR-SOS-7098f804-14], the IC50 under setting [1] was 39.1 µM.

With `N#Cc1cccc(NC(=O)Nc2cncc(N)c2)c1` [DAR-DIA-23aa0b97-8], the IC50 under setting [1] is 54.3 µM. For `N#Cc1cccc(NC(=O)Nc2c[nH]c3ncccc23)c1` [DAR-DIA-23aa0b97-11], the IC50 under setting [1] is 63.6 µM. On to `CC(=O)NC(C)c1cc(F)cc(Cl)c1` (stereo not drawn) [DAV-CRI-3edb475e-6, Mpro-x10172], for which, under setting [1], the IC50 is 24.4 µM. Take `Cc1ccncc1NC(=O)N(Cc1ccccc1)c1cccc(Cl)c1` [EDG-MED-0da5ad92-20]: the IC50 under setting [1] is 22.9 µM. For `O=C(Nc1cncc2[nH]c(=O)[nH]c12)C1CCOc2ccc(Cl)cc21` (stereo not drawn) [EDG-MED-0e5afe9d-2], the IC50 under setting [1] was 62.8 µM. In the case of `NS(=O)(=O)c1[nH]ncc1C(=O)NC[C@@]1(C(=O)Nc2cncc3ccccc23)CCOc2ccc(Cl)cc21` [EDJ-MED-4c7486ba-8], under setting [1], the IC50 was 1.99 µM. Regarding `COCC1(C(=O)Nc2cncc3ccccc23)CCOc2cc(Cl)c(Cl)cc21` (stereo not drawn) [EDJ-MED-37aac4bd-2], under setting [1], the IC50 was 4.04 µM. In the case of `O=C(Cc1cccc(Cl)c1)Nc1cncc2c1OCCC2` [EDJ-MED-976da9a6-1], the IC50 under setting [1] is 10.9 µM. For `Cc1ccncc1N1CCC(c2cccc(Cl)c2)S1(=O)=O` (stereo not drawn) [EDJ-MED-49816e9b-4], the IC50 under setting [1] was 76.6 µM.

In the case of `Cc1cc(C(F)(F)F)nc2n[nH]c(NC(=O)Cc3cccc(Cl)c3)c12` [EDJ-MED-c8e7a002-5], the IC50 under setting [1] is 90.7 µM.

Regarding `O=C(Cc1cccc(Cl)c1)Nc1n[nH]c2ccc(F)cc12` [EDJ-MED-c8e7a002-9], the IC50 under setting [1] was 94 µM. Take `O=C(Cc1cccc(Cl)c1)Nc1[nH]nc2cccc(F)c12` [EDJ-MED-c8e7a002-13]: the IC50 under setting [1] was 90.6 µM. `C[C@H]1C[C@@H](C(=O)Nc2cncc3ccccc23)c2cc(Cl)ccc2O1` [EDJ-MED-e4b030d8-3]: under setting [1], the IC50 is 32.7 µM. As to `Cc1c(Cl)ccc2c1[C@H](C(=O)Nc1cncc3ccccc13)CCO2` [EDJ-MED-e4b030d8-8], the IC50 under setting [1] was 3.67 µM.

As to `Cc1ccncc1N1CCC(c2cccc(Cl)c2)C1=O` (stereo not drawn) [EDJ-MED-e66f2cc5-1], under setting [1], the IC50 is 28.8 µM.

Turning to `O=C(c1cc(=O)[nH]c2ccccc12)N1CCN(c2cccc(C(F)(F)F)c2)CC1` [ERI-UCB-a0b0dbcb-4], the IC50 under setting [1] was 4.72 µM. On to `O=C(c1cc(=O)[nH]c2ccccc12)N1CCN(Cc2cccc(Cl)c2)CC1` [ERI-UCB-a0b0dbcb-12], for which the IC50 under setting [1] was 4.57 µM. As for `O=C(c1cc(=O)[nH]c2ccccc12)N1CCN(Cc2cccc(C(F)(F)F)c2)CC1` [ERI-UCB-a0b0dbcb-13], the IC50 under setting [1] is 34.2 µM. For the compound `O=C(Cc1cncc2ccccc12)Nc1cc(Cl)cc(OC2CCC(=O)N2)c1` (stereo not drawn) [ERI-UCB-ce40166b-6], the IC50 under setting [1] is 28.9 µM. As for `O=C(Nc1cncc2ccccc12)C1COc2c(Cl)cccc21` (stereo not drawn) [FRA-DIA-c7e803f4-1], the IC50 under setting [1] is 5.06 µM. On to `COc1ccc2c(NC(=O)C3CCOc4ccc(Cl)cc43)noc2c1` (stereo not drawn) [JAG-UCB-52b62a6f-10], for which the IC50 under setting [1] was 57.5 µM. As to `O=C(Nc1n[nH]c2ccnc(Br)c12)C1CCOc2ccc(Cl)cc21` (stereo not drawn) [JAG-UCB-52b62a6f-15], the IC50 under setting [1] was 86.8 µM. Take `O=C(Nc1n[nH]c2ccncc12)C1CCOc2ccc(Cl)cc21` (stereo not drawn) [JAG-UCB-52b62a6f-16]: under setting [1], the IC50 is 70.3 µM. `O=C(Nc1cnccc1CO)C1COc2ccc(Cl)cc21` (stereo not drawn) [JAG-UCB-a3ef7265-3, Mpro-x10338]: the IC50 under setting [1] was 30.4 µM. Regarding `O=C(Nc1cnccc1CO)[C@@H]1COc2ccc(Cl)cc21` [JAG-UCB-a3ef7265-3], the IC50 under setting [1] is 30.4 µM.

For `O=C(Cc1cccc(Cl)c1)Nc1nnn[nH]1` [JAN-GHE-5a013bed-11], the IC50 under setting [1] is 45.3 µM. For the compound `O=C(Cc1cncc2ccccc12)N1CCOc2ccc(Cl)cc21` [JOH-UNI-ea1df7a8-1], the IC50 under setting [1] is 4.85 µM. On to `O=C(Nc1c[nH]c(=O)c2ccccc12)C1CCOc2ccc(Cl)cc21` (stereo not drawn) [JOH-UNI-f51e3bbc-1], for which the IC50 under setting [1] was 91.6 µM. `CC(C)Cn1cc(NC(=O)NCc2ccco2)c2ccccc2c1=O` [LON-WEI-4d77710c-44]: the IC50 under setting [1] is 29.6 µM.

As to `COC(=O)c1c(C)nn(C(=O)c2cccs2)c1-c1snnc1C` [LON-WEI-4d77710c-66], the IC50 under setting [1] was 3.12 µM. Turning to `O=C(Nc1ccc(Cl)cc1)[C@@H](c1ccccc1)N1Cc2ccccc2C1=O` [LON-WEI-b2874fec-16], under setting [1], the IC50 is 82.3 µM.

Turning to `O=C(NCc1cccs1)[C@@H](c1ccccc1)N1Cc2ccccc2C1=O` [LON-WEI-f8a636e2-1], the IC50 under setting [1] is 90.7 µM. As to `COc1ccccc1OCCC(=O)Nc1cncc2ccccc12` [MAR-UCB-f313ec4d-3], the IC50 under setting [1] was 90.9 µM. Turning to `CN(C)C(C(=O)Nc1cncc2ccccc12)c1ccc(Cl)c(Cl)c1` (stereo not drawn) [MAT-POS-1f3f1a6f-2], the IC50 under setting [1] was 4.27 µM. Take `CC(=O)NC(C(=O)Nc1cncc2ccccc12)c1ccc(Cl)c(Cl)c1` (stereo not drawn) [MAT-POS-1f3f1a6f-3]: the IC50 under setting [1] is 4.05 µM. For the compound `O=C(Nc1cncc2ccccc12)C(NCC1CC1)c1ccc(Cl)c(Cl)c1` (stereo not drawn) [MAT-POS-1f3f1a6f-4], under setting [1], the IC50 is 1.75 µM. Turning to `O=C(Cc1cc(Cl)cc(OC2CC(=O)N2)c1)Nc1cc(=O)[nH]c2ccccc12` (stereo not drawn) [MAT-POS-3b92565d-6], under setting [1], the IC50 was 91.1 µM. With `CN(C)C(=O)CC1(C(=O)Nc2cncc3ccccc23)CCOc2ccc(Cl)cc21` (stereo not drawn) [MAT-POS-5d65ec79-1], the IC50 under setting [1] is 2.92 µM. Take `OC(Cc1cccc(Cl)c1)Cn1cncn1` (stereo not drawn) [MAT-POS-6da3605a-2]: the concentration for half-maximal inhibition (IC50) under setting [1] was 82.2 µM. As for `O=C(Nc1cncc2ccccc12)C1(CO)CCOc2ccc(Cl)cc21` (stereo not drawn) [MAT-POS-9db1e783-2], the IC50 under setting [1] was 1.09 µM. Turning to `O=C(Cc1cc(Cl)cc(OC2CCC(=O)N2)c1)Nc1cncc2ccccc12` (stereo not drawn) [MAT-POS-9ff17035-1], under setting [1], the IC50 was 85.9 µM.

As to `O=C(Cc1cc(Cl)cc(Oc2cccc(=O)[nH]2)c1)Nc1cncc2ccccc12` [MAT-POS-9ff17035-2], under setting [1], the IC50 is 1.98 µM. For the compound `O=C(Cc1cccc(Cl)c1)Nc1cncc2c1CCCN2` [MAT-POS-14ad9fe9-1], the IC50 under setting [1] is 5.66 µM. Turning to `O=C(Cc1ccc(Cl)c(Cl)c1)Nc1cncc2ccccc12` [MAT-POS-23a8a11a-1, O=C(Cc1ccc(Cl)c(Cl)c1)Nc1cncc2ccccc12, reference compound], the IC50 under setting [1] is 0.196 µM. Consider `CNC(=O)C1(CC(=O)Nc2cncc3ccccc23)CCOc2ccc(Cl)cc21` (stereo not drawn) [MAT-POS-78e1d523-2], for which the IC50 under setting [1] was 30.7 µM. Consider `CC(C(N)=O)c1cc(Cl)cc(CC(=O)Nc2cncc3ccccc23)c1` (stereo not drawn) [MAT-POS-281d2ee9-1], for which the IC50 under setting [1] was 2.62 µM. In the case of `O=C(Cc1cc(Cl)cc(-c2nnn[nH]2)c1)Nc1cncc2ccccc12` [MAT-POS-281d2ee9-3], the half-inhibitory concentration (IC50) under setting [1] is 21.4 µM. For the compound `O=C1CC(C(=O)N2CCN(c3cccc(Cl)c3)CC2)c2ccccc2N1` (stereo not drawn) [MAT-POS-450cb4f9-1], the IC50 under setting [1] is 20.9 µM.
